Data on 2 molecules can be found in paper PMC9318133 (International Journal of Molecular Sciences, 2022).

In experiment [1] the target is T1, human CB2 receptors (Homo sapiens, UniProt P34972).
T1 construct: host or cells: CHO cells
On the set-up: method as in PMID 27527584, PMID 25769232. Particulars: read-out: hCB2 CHO Membranes Ki; [3H]-CP-55,940 competition binding; mean ± SEM; data elaborated from ref [15],[33]; cited from earlier work.

The target of a further experiment is T2, mouse CB1 receptors (Mus musculus, UniProt P47746).
T2 construct: membranes from the mouse brain and spleen were used, respectively; from tissue
Also on record: method as in PMID 27527584, PMID 25769232. As to conditions: read-out: Mouse Cortex Membranes CB1 Ki; [3H]-CP-55,940 competition binding; mean ± SEM; data elaborated from ref [15],[33]; cited from earlier work.

The target of experiment [2] is T1, human CB2 receptors. Also on record: method as in PMID 27527584, PMID 25769232. Particulars: read-out: hCB2 CHO Cells IC50; cyclic AMP experiments; mean ± SEM; data elaborated from ref [15],[33]; cited from earlier work.
The test system of experiment [3] is CD-1 mice. Also on record: method as in PMID 25769232, PMID 25987201. Particulars: ED50 + SEM, data elaborated from ref [33],[34]; cited from earlier work.
Experiment [4] relates to CD-1 mice. Also on record: method as in PMID 25769232, PMID 25987201. Particulars: ED50 + SEM, data elaborated from ref [33],[34]; cited from earlier work. This is another data set of the same source.
Experiment [5] relates to CD-1 mice. On the set-up: method as in PMID 25769232, PMID 25987201. As to conditions: ED50 + SEM, data elaborated from ref [33],[34]; cited from earlier work. This is another data set of the same source.
For experiment [6], the target named is T1, human CB2 receptors. The experiment can be described thus: [3H]-CP-55,940 competition binding, CHO cell membranes transfected with human CB2 receptors. How it is done:
To obtain membranes, cells were washed with phosphate-buffered saline (PBS) and scraped off with ice-cold hypotonic buffer (5 mM Tris HCl, 2 mM EDTA, pH 7.4). The cell suspension was homogenized with a Polytron and then centrifuged for 30 min at 40,000× g. The membrane pellet was suspended in 50 mM Tris HCl buffer (pH 7.4) containing 2.5 mM ethylenediaminetetraacetic acid (EDTA), 5 mM MgCl2, and 0.5 mg/mL bovine serum albumin (BSA) for CB1 receptors or in 50 mM Tris HCl (pH 7.4), 1 mM EDTA, 5 mM MgCl2, and 0.5% BSA for CB2 receptors.
For human cannabinoid receptors, membranes obtained from CHO cells transfected with human CB1 or CB2 receptors (2 µg protein/100 µL) were used. […] Bound and free radioactivity were separated by filtering the assay mixture through Whatman GF/C glass fiber filters using a Brandel cell harvester (Brandel Instruments, Unterföhring, Germany).
The protein concentration was determined according to a Bio-Rad method with bovine serum albumin as a reference standard. Inhibitory binding constants, Ki, were calculated from the IC50 values according to the Cheng and Prusoff equation:Ki = IC50/(1 + [C*]/KD*) where [C*] is the concentration of the radioligand and KD* its dissociation constant. Functional experiments were analyzed by non-linear regression analysis using the equation for a sigmoid concentration–response curve (GraphPad Prism, San Diego, CA, USA). […]

In another experiment the target is T3, human CB1 receptors (Homo sapiens, UniProt P21554).
T3 construct: host or cells: CHO cells
The experiment can be described thus: Cyclic AMP assay (forskolin-stimulated) in CHO cells transfected with human CB1 receptors. In kind it is cell-based. How it is done: Chinese hamster ovarian (CHO) cells transfected with human CB1 or CB2 receptors (Perkin Elmer Life and Analytical Sciences, Melville, NY, USA) were grown adherently and maintained in Ham’s F12 containing 10% fetal bovine serum, penicillin (100 U/mL), streptomycin (100 µg/mL), and Geneticin (G418, 0.4 mg/mL) at 37 °C in 5% CO2/95% air. To obtain membranes, cells were washed with phosphate-buffered saline (PBS) and scraped off with ice-cold hypotonic buffer (5 mM Tris HCl, 2 mM EDTA, pH 7.4). The cell suspension was homogenized with a Polytron and then centrifuged for 30 min at 40,000× g. […]
The protein concentration was determined according to a Bio-Rad method with bovine serum albumin as a reference standard. Inhibitory binding constants, Ki, were calculated from the IC50 values according to the Cheng and Prusoff equation:Ki = IC50/(1 + [C*]/KD*) where [C*] is the concentration of the radioligand and KD* its dissociation constant. Functional experiments were analyzed by non-linear regression analysis using the equation for a sigmoid concentration–response curve (GraphPad Prism, San Diego, CA, USA). All the data are expressed as the mean ± SEM of three independent experiments.

In experiment [7] the test system is CD-1 mice. In words: Acoustic response (startle reflex) test. It is filed as in vivo, mouse.
Experiment [8] relates to CD-1 mice. The experiment can be described thus: Core (rectal) temperature evaluation. In kind it is in vivo, mouse.
For experiment [9], the system named is CD-1 mice. In words: Drag test (number of steps). It is filed as in vivo, mouse.
[10] abbreviates: 0.01–30 mg/kg i.p., monitored over 5 h.
The mark [11] stands for this setting: Mus musculus, ip, mice, ED50 + SEM.

Read-outs that look alike come from different tables or passages of the source.

T1 sequence (P34972 whole entry): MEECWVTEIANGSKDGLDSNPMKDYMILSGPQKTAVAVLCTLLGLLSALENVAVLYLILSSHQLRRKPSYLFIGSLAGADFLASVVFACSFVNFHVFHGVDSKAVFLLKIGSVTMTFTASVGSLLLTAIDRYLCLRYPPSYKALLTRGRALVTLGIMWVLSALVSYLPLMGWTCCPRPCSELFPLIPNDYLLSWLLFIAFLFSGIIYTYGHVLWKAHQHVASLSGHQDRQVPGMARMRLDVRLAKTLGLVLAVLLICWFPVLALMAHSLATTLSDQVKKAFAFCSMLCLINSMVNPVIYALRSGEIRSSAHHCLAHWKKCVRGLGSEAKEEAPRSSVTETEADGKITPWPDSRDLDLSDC
T2 sequence (P47746 whole entry): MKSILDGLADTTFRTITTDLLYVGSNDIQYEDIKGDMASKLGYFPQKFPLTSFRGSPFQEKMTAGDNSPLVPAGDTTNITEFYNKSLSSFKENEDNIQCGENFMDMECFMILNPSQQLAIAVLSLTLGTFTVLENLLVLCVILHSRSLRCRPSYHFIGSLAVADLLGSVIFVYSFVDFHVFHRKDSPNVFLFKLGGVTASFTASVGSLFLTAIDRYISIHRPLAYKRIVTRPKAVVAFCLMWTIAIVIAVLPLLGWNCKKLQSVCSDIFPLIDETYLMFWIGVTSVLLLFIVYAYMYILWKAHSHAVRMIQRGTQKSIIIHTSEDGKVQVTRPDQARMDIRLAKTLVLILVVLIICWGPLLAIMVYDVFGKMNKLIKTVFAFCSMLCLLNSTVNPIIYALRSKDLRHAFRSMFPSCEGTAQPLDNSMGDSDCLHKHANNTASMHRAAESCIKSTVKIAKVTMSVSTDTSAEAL
T3 sequence (P21554 whole entry): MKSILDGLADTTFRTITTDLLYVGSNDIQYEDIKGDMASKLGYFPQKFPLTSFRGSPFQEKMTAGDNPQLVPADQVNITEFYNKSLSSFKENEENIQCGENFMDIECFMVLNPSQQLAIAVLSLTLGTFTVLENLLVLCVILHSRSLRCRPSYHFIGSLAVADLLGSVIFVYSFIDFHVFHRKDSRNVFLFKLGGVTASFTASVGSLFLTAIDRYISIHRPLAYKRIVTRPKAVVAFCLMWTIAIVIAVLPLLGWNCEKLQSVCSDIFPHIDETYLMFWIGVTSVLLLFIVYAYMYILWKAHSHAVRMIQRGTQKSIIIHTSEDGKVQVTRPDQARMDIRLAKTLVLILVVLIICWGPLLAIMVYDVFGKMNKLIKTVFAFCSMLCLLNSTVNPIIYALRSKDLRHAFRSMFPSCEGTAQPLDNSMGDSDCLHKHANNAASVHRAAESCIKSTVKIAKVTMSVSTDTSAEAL

In general, Ki refers to a dissociation constant, usually derived from enzyme kinetics or from competition with a known ligand. The term IC50 denotes the concentration that gives 50% inhibition. For the molecule `CCCCCn1cc(C(=O)c2cccc3ccccc23)c2ccccc21` [JWH-018, 1-naphthalenyl(1-pentyl-1H-indol-3-yl)-methanone], the Ki at human CB2 receptors [1] is 8.63 ± 0.69 nM; on mouse CB1 receptors, 5.82 ± 0.44 nM. Further, the IC50 at human CB2 receptors [2] is 11.6 ± 0.97 nM. Further, the “ED50 Startle Reflex” value in the experiment with CD-1 mice [3] is listed as 0.53 ± 0.05 mg/kg. Further, the “ED50 Core Temperature” value in the experiment with CD-1 mice [4] is 1.7 ± 0.04 mg/kg. For the same molecule, in the experiment with CD-1 mice [5], the “ED50 Tail Pinch” value is listed as 1.8 ± 0.11 mg/kg.
For orientation: ED50 means the midpoint of the dose-response relation. For the molecule `CCCCCn1cc(Cc2cccc3ccccc23)c2ccccc21` [JWH-175, 3-(1-naphthalenylmethyl)-1-pentyl-1H-indole], on human CB2 receptors [6], affinity was put at a Ki of 363 ± 31 nM. The molecule further showed an IC50 on human CB1 receptors of 72 ± 5 nM. Moreover, the “effect on acoustic response” value in the experiment on CD-1 mice [7] (setting [10]) is “dose-dependently reduced”. The ED50 in the experiment with CD-1 mice [7] (setting [11]) was 4 ± 0.03 mg/kg; in the experiment on CD-1 mice [8] (setting [11]), 5.6 ± 0.04 mg/kg; in the experiment with CD-1 mice [9] (Mus musculus, ip, mice, ED50 + SEM, calculated on inhibitory effect of the highest doses), 10.9 ± 0.12 mg/kg. Further, the “effect on core temperature” value in the experiment with CD-1 mice [8] (setting [10]) is given as “reduced”. The “effect on motor activity in the drag test at low dose” value in the experiment on CD-1 mice [9] (0.1 mg/kg i.p., lasted up to 280 min) is on record as “facilitated”. The “effect on motor activity in the drag test at higher doses” value with CD-1 mice [9] (6–30 mg/kg i.p.) is recorded as “inhibited”.
